{"source": "patent US20230184743A1", "about": "“SCREENING METHODS TO IDENTIFY SMALL MOLECULE COMPOUNDS THAT PROMOTE OR INHIBIT THE GROWTH OF CIRCULATING TUMOR CELLS, AND USES THEREOF” (University of Southern California, priority 2020, published 2023)", "key": {"[1]": {"system": "MCF7 cells, MDA-MB-231 cells, T47D cells", "test": "Senescence assay: β-galactosidase activity", "assay_type": "cell-based", "conditions": "various concentrations", "source_text": "(A) MCF7 cells. (B) MDA-MB-231 cells. (C) T47D cells.\nBecause an arrested state in which the cell remains viable, are not stimulated to divide by serum or passage in culture, a specific cell cycle profile is illicited that differs from most damage-induced arrest processes or contact inhibition. Characteristics of senescence cells include an enlarged cell size, expression of pH-dependent β-galactosidase activity, and an altered pattern of gene expression. To determine these characteristics, CTC cells were cultured with a compound of Formula II or cx-4945 (Silmitasertib) at various concentrations and β-galactosidase activity was measured."}, "[2]": {"system": "single CTCs from 4 patient-derived CTC lines (BRx07, BRx42, BRx50, and BRx68)", "test": "Validation of candidate compounds: single CTC proliferation over 24 days (AUC)", "assay_type": "cell-based, human", "protocol": "(§1) Cell culture. CTC lines were previously derived from metastatic breast cancer patients. CTC lines were cultured in ultra-low attachment plates with RPMI 1640 medium, supplemented with EGF (20 ng/mL), bFGF (20 ng/mL), 1×B27 and 1× antibiotic/antimycotic, in 4% 02 and 5% CO2. Single CTCs were cultured in GravityTRAP™ ULA 96 well Plates (PerkinElmer). Wells on the edges of the plates were not used to avoid influence from evaporation. Media with fresh compounds were exchanged every 3 days by inserting pipet tips onto the platform of the wells to prevent accidentally aspirating suspended CTCs at the bottom. CTC numbers were counted manually under an inverted microscope every 6 days.\nFACS sorting. Cells were pelleted and resuspended into single cell suspension in 1% BSA in PBS buffer with 7-AAD. Live single CTCs were sorted directly into 96-well GravityTRAP™ ULA Plates using a MoFlo cell sorter (Beckman Coulter). An inverted microscope was used to manually confirm that there was 1 CTC per well, 1 hour after sorting.\nCompounds screening. Compounds were from the StemSelect library obtained from the Choi Family Therapeutic Screening Facility at the Eli and Edythe Broad CIRM Center for Regenerative Medicine and Stem Cell Research at USC. Each compound was given a code to ensure unbiased assessment and blinded to the investigators. Compound information is listed in Appendix, at Table 1 of US Provisional Application No. U.S. 62/990,445, incorporated herein by reference). In the first-round screening, compounds were used with […] concentration. Stocks of compounds (10 mM concentration in DMSO) were stored in aliquots at −80° C. All compounds were thawed and refrozen for a maximum of 2 times. In the second-round validation, fresh compounds were dissolved in DMSO (Millipore sigma), and aliquots were stored at −20° C. and used only once without refreezing. Only wells started from single cells on day 0 after sorting were used in the screening experiment. Data collection was done in batches.\n(§2) Statistical analysis. […] AUC was calculated for each well in each batch, by plotting days in the x-axis and the corresponding number of cells in the y-axis, then drawing a line to connect the number of cells from the starting count day to the next count day until the end day, and finally calculating the area under this line as the sum of areas of trapezoids. […] Statistical tests were performed using R. For absolute number of cells quantification, total number of cells at end of experiment in each well in each batch was compared between treated cells and untreated control and significance was analyzed with Student t test. For other experiments, data were analyzed with Student t test, and represent the means±SEM of at least triplicate samples or averages ±SD of independent analyses, as indicated. […]"}, "[3]": {"system": "breast cancer circulating tumor cell (CTC)", "test": "Breast cancer CTC growth screen", "assay_type": "cell-based, human", "conditions": "added at 1 uM", "protocol": "Using the assay system described herein CTC were contact with a panel of small molecule drugs and the effect of the drugs on cell growth, migration, proliferation and gene expression was measured. […] This was initially found in a breast cancer circulating tumor cell (CTC) growth screen."}, "BRx42": {"system": "BRx42", "test": "Single CTC proliferation over 24 days (AUC), BRx42 line", "assay_type": "cell-based, human", "protocol": "as §1\n(§3) FACS sorting. […]\nas §2, with “test.” for “test. For other experiments, data were analyzed with Student t test, and represent the means±SEM of at least triplicate samples or averages ±SD of independent analyses, as indicated.”"}, "single BRx68 cells": {"system": "single BRx68 cells", "test": "Single CTC proliferation over 24 days (AUC), BRx68 line", "assay_type": "cell-based, human", "protocol": "as §1, §3\nas §2, with “test.” for “test. For other experiments, data were analyzed with Student t test, and represent the means±SEM of at least triplicate samples or averages ±SD of independent analyses, as indicated.”"}, "BRx68-GFP+ cells": {"system": "BRx68-GFP+ cells", "test": "RNA-seq analysis of pools of growing single cell clones", "assay_type": "cell-based, human", "conditions": "day 6; NAC 0.3 mM, P4D8 1 μM", "protocol": "RNA-seq analysis. BRx68-GFP+ cells were sorted, with 1 cell per well, using the MoFlo cell sorter (Beckman Coulter). Single cells were cultured in the presence of CTC media containing either 1 μM of P1C2, P4D8, or P1G7, or 0.3 mM of NAC or a combination of 1 μM of P1C2 and 0.3 mM of NAC. Cells cultured in media containing DMSO served as a control. All cells were cultured for either 6 days or 13 days at 37° C., 5% CO2 and 4% O2, and media was changed every 3 days. For both day 6 and day 13 groups, only clones with more than 3 cells at day 6 were harvested and pooled to a maximum of 50 cells. […] Libraries were sequenced on an Illumina NextSeq500 to obtain 75 bp-long single-end reads.\nRNA-sequencing reads were trimmed for Nextera and Illumina adapter sequences using Trim Galore under default parameters. Trimmed reads were then mapped to the human genome build GRCh37 from Ensembl (ftp:/][/ftp.ensembl.org/pub/grch37/current/fasta/homo_sapiens/dna/Homo_sapiens.GRCh37.dna_sm.primary_as sembly.fa.gz) using STAR under optimized parameters for single-end sequenced data. Aligned reads were then counted via feature-Counts and piped into DESeq2 for normalization to sequencing depth and downstream analysis. […]"}}}
{"molecule": "COc1cc(Nc2ncc3ccn(-c4cccc(CCC#N)c4)c3n2)cc(OC)c1OC", "note": "[Formula II, 3-(3-(2-(3,4,5-Trimethoxy-phenylamino)-7H-pyrrolo[2,3-d]pyrimidin-7-yl)phenyl)propionitrile]", "values": [{"measurement": "induced senescence (β-galactosidase activity) relative to CX-4945", "setting": "[1]", "value": "3-4 fold"}, {"measurement": "proliferation of single CTCs (AUC measurement)", "setting": "[2]; 4 different CTC lines over 24 days", "value": "inhibition of the proliferation"}, {"measurement": "CTC growth", "setting": "[3]", "value": "stopped growing"}]}
{"molecule": "N#C/C(=C\\c1ccc(-c2cc(Cl)ccc2Cl)o1)C(=O)Nc1cccc2ncccc12", "note": "[P1G3, AGK2]", "values": [{"measurement": "single cell growth", "setting": "BRx42", "value": "promote single cell growth"}]}
{"molecule": "CCNCc1cc(C(C)(C)C)c(O)c(C(C)(C)C)c1", "note": "[P4D8, LY 231617]", "values": [{"measurement": "single cell growth", "setting": "[2]; other lines (than BRx68)", "value": "inhibit growth"}, {"measurement": "single cell growth", "setting": "single BRx68 cells", "value": "promote single cell growth"}, {"measurement": "lipid metabolism pathway enrichment (IPA of differentially expressed genes) compared with control", "setting": "BRx68-GFP+ cells", "value": "enriched"}]}
